These molecules were tested on Caenorhabditis elegans (assay: C. elegans L1 nematicidal dose response in 96-well plates, 5 day visual score (Example 2; same procedure for Example 7, Table 3)). Settings: Follow-up HTS run.
Type: in vivo
Parameters: key to 5 Day Visual Score V1 / 5 Day Visual Score V2 / 5 Day Visual Score V3 / 5 Day Visual Score V4 / 5 Day Visual Score V6 / 5 Day Visual Score V5 / Initial HTS Run Visual Score / Follow-up HTS Run Visual Score: Dead: only stiff L1s (no movement); Dead (L4): worms are dead, but at a later larval stage; majority of worms are L1 (based on size) worms move when plate is tapped; majority of worms are L2 (based on size); majority of worms are L3 (based on size); majority of worms are L4 (based on size); AD: majority of worms are adult; #AD: 5 adult worms or less; B!: sterile (0-25 progeny); B: low broodsize (25-100 progeny); ˜B: moderate broodsize (100-250 progeny); <: reduced broodsize (250-500 progeny); OK: no effect (˜1000+ progeny)
In short: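 Scoring was by eye at 100× on day 5, after incubation at 20° C, of 20 C. elegans L1s per well fed 1% E. coli HB101 in NGM. Compound columns V1–V6 spanned 70 μM to 0.3 μM in 3-fold steps, with 1.4% DMSO in the top well and as control.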

SMILES	Follow-up HTS Run % Run	Follow-up HTS Run mOD	Follow-up HTS Run Visual Score
FC(F)(F)c1ccc(CNc2nsc(N3CCN(c4cccc(C(F)(F)F)c4)CC3)n2)cc1 [compound 250]	125%	201 mOD	
CC(O)CN(CC(C)O)c1nc(NCc2ccc(C(F)(F)F)cc2)ns1 (centres unmarked) [compound 252]	100%	161 mOD	L2 - Dead L3
OCCN(CCO)c1nc(NCc2ccc(C(F)(F)F)cc2)ns1 [compound 254]	113%	182 mOD	L2 - Dead L3
OCCN(Cc1ccccc1)c1nc(NCc2ccc(C(F)(F)F)cc2)ns1 [compound 255]	98%	157 mOD	L1/L2 - Dead L3
CN(CCO)c1nc(NCc2ccc(C(F)(F)F)cc2)ns1 [compound 256]	112%	180 mOD	L2 - Dead L3
COCCN(CCOC)c1nc(NCc2ccc(C(F)(F)F)cc2)ns1 [compound 257]	104%	168 mOD	L4/AD/B!
FC(F)(F)c1cccc(N2CCN(c3nc(NCc4ccccc4C(F)(F)F)ns3)CC2)c1 [compound 258]	124%	200 mOD	B! (sterile (0-25 progeny))
CCCN(CC1CC1)c1nc(NCc2ccccc2C(F)(F)F)ns1 [compound 260]	147%	236 mOD	L2
CC1CCN(c2nc(NCc3ccccc3)ns2)CC1 [compound 261]	96%	155 mOD	
OC1CCN(c2nc(NCc3ccccc3)ns2)CC1 [compound 262]	106%	171 mOD	
OCC1CCCN(c2nc(NCc3ccccc3)ns2)C1 (centres unmarked) [compound 263]	104%	167 mOD	
CC1CC(C)CN(c2nc(NCc3ccccc3)ns2)C1 (centres unmarked) [compound 264]	110%	177 mOD	L4/AD/B

Same assay, conditions: Initial HTS run

SMILES	Initial HTS Run % Run	Initial HTS Run Visual Score	Initial HTS Run mOD
FC(F)(F)c1ccc(CNc2nsc(N3CCN(c4cccc(C(F)(F)F)c4)CC3)n2)cc1 [compound 250]	108%	L2 - (Dead L3)	119 mOD
CC(O)CN(CC(C)O)c1nc(NCc2ccc(C(F)(F)F)cc2)ns1 (centres unmarked) [compound 252]	100%	Dead(L3)	110 mOD
OCCN(CCO)c1nc(NCc2ccc(C(F)(F)F)cc2)ns1 [compound 254]	105%	Dead(L3)	116 mOD
OCCN(Cc1ccccc1)c1nc(NCc2ccc(C(F)(F)F)cc2)ns1 [compound 255]	94%	Dead(L3)	103 mOD
CN(CCO)c1nc(NCc2ccc(C(F)(F)F)cc2)ns1 [compound 256]	106%	L2 - (Dead L3)	117 mOD
COCCN(CCOC)c1nc(NCc2ccc(C(F)(F)F)cc2)ns1 [compound 257]	91%	L4/AD/B!	100 mOD
FC(F)(F)c1cccc(N2CCN(c3nc(NCc4ccccc4C(F)(F)F)ns3)CC2)c1 [compound 258]	111%	L4/AD/B!-Few Eggs	122 mOD
CCCN(CC1CC1)c1nc(NCc2ccccc2C(F)(F)F)ns1 [compound 260]	122%	L2 (Dead L3)	134 mOD
CC1CCN(c2nc(NCc3ccccc3)ns2)CC1 [compound 261]	96%	L3/L4/AD/B!	106 mOD
OC1CCN(c2nc(NCc3ccccc3)ns2)CC1 [compound 262]	110%	L3/L4/AD/B!	121 mOD
OCC1CCCN(c2nc(NCc3ccccc3)ns2)C1 (centres unmarked) [compound 263]	110%		121 mOD
CC1CC(C)CN(c2nc(NCc3ccccc3)ns2)C1 (centres unmarked) [compound 264]	104%	L4/AD/B	114 mOD

Same assay, conditions: dose response, dilution V1, day 5

SMILES	5 Day Visual Score V1
FC(F)(F)c1ccc(CNc2nsc(N3CCN(c4cccc(C(F)(F)F)c4)CC3)n2)cc1 [compound 250]	L3/Dead(L3)
CC(O)CN(CC(C)O)c1nc(NCc2ccc(C(F)(F)F)cc2)ns1 (centres unmarked) [compound 252]	Dead(L3)
OCCN(CCO)c1nc(NCc2ccc(C(F)(F)F)cc2)ns1 [compound 254]	Dead(L3)
OCCN(Cc1ccccc1)c1nc(NCc2ccc(C(F)(F)F)cc2)ns1 [compound 255]	Dead
CN(CCO)c1nc(NCc2ccc(C(F)(F)F)cc2)ns1 [compound 256]	Dead
COCCN(CCOC)c1nc(NCc2ccc(C(F)(F)F)cc2)ns1 [compound 257]	L1
CCCN(CC1CC1)c1nc(NCc2ccccc2C(F)(F)F)ns1 [compound 260]	L1
CC1CCN(c2nc(NCc3ccccc3)ns2)CC1 [compound 261]	Dead
OC1CCN(c2nc(NCc3ccccc3)ns2)CC1 [compound 262]	L4/#AD/B!
CC1CC(C)CN(c2nc(NCc3ccccc3)ns2)C1 (centres unmarked) [compound 264]	L2

Same assay, conditions: dose response, dilution V2, day 5

SMILES	5 Day Visual Score V2
FC(F)(F)c1ccc(CNc2nsc(N3CCN(c4cccc(C(F)(F)F)c4)CC3)n2)cc1 [compound 250]	L4/#AD/B!
CC(O)CN(CC(C)O)c1nc(NCc2ccc(C(F)(F)F)cc2)ns1 (centres unmarked) [compound 252]	Dead(L3)
OCCN(Cc1ccccc1)c1nc(NCc2ccc(C(F)(F)F)cc2)ns1 [compound 255]	Dead
COCCN(CCOC)c1nc(NCc2ccc(C(F)(F)F)cc2)ns1 [compound 257]	˜B (moderate broodsize (100-250 progeny))
CCCN(CC1CC1)c1nc(NCc2ccccc2C(F)(F)F)ns1 [compound 260]	B (low broodsize (25-100 progeny))
OC1CCN(c2nc(NCc3ccccc3)ns2)CC1 [compound 262]	< (reduced broodsize (250-500 progeny))
OCC1CCCN(c2nc(NCc3ccccc3)ns2)C1 (centres unmarked) [compound 263]	˜B (moderate broodsize (100-250 progeny))

Same assay, conditions: dose response, dilution V3, day 5

SMILES	5 Day Visual Score V3
FC(F)(F)c1ccc(CNc2nsc(N3CCN(c4cccc(C(F)(F)F)c4)CC3)n2)cc1 [compound 250]	B (low broodsize (25-100 progeny))
OCCN(CCO)c1nc(NCc2ccc(C(F)(F)F)cc2)ns1 [compound 254]	< (reduced broodsize (250-500 progeny))
OCCN(Cc1ccccc1)c1nc(NCc2ccc(C(F)(F)F)cc2)ns1 [compound 255]	OK (no effect (˜1000+ progeny))
CN(CCO)c1nc(NCc2ccc(C(F)(F)F)cc2)ns1 [compound 256]	OK (no effect (˜1000+ progeny))
COCCN(CCOC)c1nc(NCc2ccc(C(F)(F)F)cc2)ns1 [compound 257]	OK (no effect (˜1000+ progeny))
FC(F)(F)c1cccc(N2CCN(c3nc(NCc4ccccc4C(F)(F)F)ns3)CC2)c1 [compound 258]	˜B (moderate broodsize (100-250 progeny))
CCCN(CC1CC1)c1nc(NCc2ccccc2C(F)(F)F)ns1 [compound 260]	OK (no effect (˜1000+ progeny))
CC1CCN(c2nc(NCc3ccccc3)ns2)CC1 [compound 261]	OK (no effect (˜1000+ progeny))
OC1CCN(c2nc(NCc3ccccc3)ns2)CC1 [compound 262]	OK (no effect (˜1000+ progeny))
OCC1CCCN(c2nc(NCc3ccccc3)ns2)C1 (centres unmarked) [compound 263]	OK (no effect (˜1000+ progeny))
CC1CC(C)CN(c2nc(NCc3ccccc3)ns2)C1 (centres unmarked) [compound 264]	< (reduced broodsize (250-500 progeny))

Same assay, conditions: dose response, dilution V4, day 5

SMILES	5 Day Visual Score V4
FC(F)(F)c1ccc(CNc2nsc(N3CCN(c4cccc(C(F)(F)F)c4)CC3)n2)cc1 [compound 250]	OK (no effect (˜1000+ progeny))
CC(O)CN(CC(C)O)c1nc(NCc2ccc(C(F)(F)F)cc2)ns1 (centres unmarked) [compound 252]	< (reduced broodsize (250-500 progeny))
OCCN(CCO)c1nc(NCc2ccc(C(F)(F)F)cc2)ns1 [compound 254]	OK (no effect (˜1000+ progeny))
OCCN(Cc1ccccc1)c1nc(NCc2ccc(C(F)(F)F)cc2)ns1 [compound 255]	OK (no effect (˜1000+ progeny))
CN(CCO)c1nc(NCc2ccc(C(F)(F)F)cc2)ns1 [compound 256]	OK (no effect (˜1000+ progeny))
COCCN(CCOC)c1nc(NCc2ccc(C(F)(F)F)cc2)ns1 [compound 257]	OK (no effect (˜1000+ progeny))
FC(F)(F)c1cccc(N2CCN(c3nc(NCc4ccccc4C(F)(F)F)ns3)CC2)c1 [compound 258]	˜B (moderate broodsize (100-250 progeny))
CCCN(CC1CC1)c1nc(NCc2ccccc2C(F)(F)F)ns1 [compound 260]	OK (no effect (˜1000+ progeny))
CC1CCN(c2nc(NCc3ccccc3)ns2)CC1 [compound 261]	OK (no effect (˜1000+ progeny))
OC1CCN(c2nc(NCc3ccccc3)ns2)CC1 [compound 262]	OK (no effect (˜1000+ progeny))
OCC1CCCN(c2nc(NCc3ccccc3)ns2)C1 (centres unmarked) [compound 263]	OK (no effect (˜1000+ progeny))
CC1CC(C)CN(c2nc(NCc3ccccc3)ns2)C1 (centres unmarked) [compound 264]	OK (no effect (˜1000+ progeny))

Same assay, conditions: dose response, dilution V5, day 5

SMILES	5 Day Visual Score V5
FC(F)(F)c1ccc(CNc2nsc(N3CCN(c4cccc(C(F)(F)F)c4)CC3)n2)cc1 [compound 250]	OK (no effect (˜1000+ progeny))
CC(O)CN(CC(C)O)c1nc(NCc2ccc(C(F)(F)F)cc2)ns1 (centres unmarked) [compound 252]	< (reduced broodsize (250-500 progeny))
OCCN(CCO)c1nc(NCc2ccc(C(F)(F)F)cc2)ns1 [compound 254]	OK (no effect (˜1000+ progeny))
OCCN(Cc1ccccc1)c1nc(NCc2ccc(C(F)(F)F)cc2)ns1 [compound 255]	OK (no effect (˜1000+ progeny))
CN(CCO)c1nc(NCc2ccc(C(F)(F)F)cc2)ns1 [compound 256]	OK (no effect (˜1000+ progeny))
COCCN(CCOC)c1nc(NCc2ccc(C(F)(F)F)cc2)ns1 [compound 257]	OK (no effect (˜1000+ progeny))
FC(F)(F)c1cccc(N2CCN(c3nc(NCc4ccccc4C(F)(F)F)ns3)CC2)c1 [compound 258]	OK (no effect (˜1000+ progeny))
CCCN(CC1CC1)c1nc(NCc2ccccc2C(F)(F)F)ns1 [compound 260]	OK (no effect (˜1000+ progeny))
CC1CCN(c2nc(NCc3ccccc3)ns2)CC1 [compound 261]	OK (no effect (˜1000+ progeny))
OC1CCN(c2nc(NCc3ccccc3)ns2)CC1 [compound 262]	OK (no effect (˜1000+ progeny))
OCC1CCCN(c2nc(NCc3ccccc3)ns2)C1 (centres unmarked) [compound 263]	OK (no effect (˜1000+ progeny))
CC1CC(C)CN(c2nc(NCc3ccccc3)ns2)C1 (centres unmarked) [compound 264]	OK (no effect (˜1000+ progeny))

Same assay, conditions: dose response, dilution V6, day 5

SMILES	5 Day Visual Score V6
FC(F)(F)c1ccc(CNc2nsc(N3CCN(c4cccc(C(F)(F)F)c4)CC3)n2)cc1 [compound 250]	OK (no effect (˜1000+ progeny))
CC(O)CN(CC(C)O)c1nc(NCc2ccc(C(F)(F)F)cc2)ns1 (centres unmarked) [compound 252]	< (reduced broodsize (250-500 progeny))
OCCN(CCO)c1nc(NCc2ccc(C(F)(F)F)cc2)ns1 [compound 254]	OK (no effect (˜1000+ progeny))
OCCN(Cc1ccccc1)c1nc(NCc2ccc(C(F)(F)F)cc2)ns1 [compound 255]	OK (no effect (˜1000+ progeny))
CN(CCO)c1nc(NCc2ccc(C(F)(F)F)cc2)ns1 [compound 256]	OK (no effect (˜1000+ progeny))
COCCN(CCOC)c1nc(NCc2ccc(C(F)(F)F)cc2)ns1 [compound 257]	OK (no effect (˜1000+ progeny))
FC(F)(F)c1cccc(N2CCN(c3nc(NCc4ccccc4C(F)(F)F)ns3)CC2)c1 [compound 258]	OK (no effect (˜1000+ progeny))
CCCN(CC1CC1)c1nc(NCc2ccccc2C(F)(F)F)ns1 [compound 260]	OK (no effect (˜1000+ progeny))
CC1CCN(c2nc(NCc3ccccc3)ns2)CC1 [compound 261]	OK (no effect (˜1000+ progeny))
OC1CCN(c2nc(NCc3ccccc3)ns2)CC1 [compound 262]	OK (no effect (˜1000+ progeny))
OCC1CCCN(c2nc(NCc3ccccc3)ns2)C1 (centres unmarked) [compound 263]	OK (no effect (˜1000+ progeny))
CC1CC(C)CN(c2nc(NCc3ccccc3)ns2)C1 (centres unmarked) [compound 264]	OK (no effect (˜1000+ progeny))

Source: US20020002171A1, “Materials and methods for killing nematodes and nematode eggs” (priority 2000, published 2002)
